According to PubChem BioAssay (NCI):
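Where inhibition never reached the appropriate level, the endpoint shown equals the highest concentration tested. Otherwise, values were interpolated linearly from a five-concentration, 48-hour dose response in 96-well plates. Abbreviation: GI50, concentration required for 50% inhibition of growth. At the TGI there is no net growth.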

Legend:
Experiment in all cases: DTP human tumour cell line panel, 48 h
[1] = test system: SNB-75 CNS
[2] = test system: SK-MEL-2 melanoma
[3] = test system: NCI-H226 lung
[4] = test system: HOP-92 NSCLC
[5] = test system: RXF 393 renal
[6] = test system: TK-10 renal
[7] = test system: SK-OV-3 ovarian
[8] = test system: PC-3 prostate
[9] = test system: KM12 colon
[10] = test system: HOP-62 NSCLC
[11] = test system: T-47D breast
[12] = test system: LOX IMVI melanoma
[13] = test system: RPMI-8226 leukemia
[14] = test system: HT29 colon
[15] = test system: NCI-H23 lung
[16] = test system: UACC-257 melanoma
[17] = test system: UO-31 renal
[18] = test system: NCI-H522 lung
[19] = test system: HCT-116 colon
[20] = test system: SNB-19 CNS
[21] = test system: NCI/ADR-RES ovarian
[22] = test system: A498 renal
[23] = test system: SW-620 colon
[24] = test system: HCT-15 colon
[25] = test system: MALME-3M melanoma
[26] = test system: UACC-62 melanoma
[27] = test system: OVCAR-4 ovarian
[28] = test system: M14 melanoma
[29] = test system: BT-549 breast
[30] = test system: IGROV1 ovarian
[31] = test system: MCF7 breast
[32] = test system: SF-268 CNS
[33] = test system: HS 578T breast
[34] = test system: SR leukemia
[35] = test system: EKVX NSCLC
[36] = test system: NCI-H460 lung
[37] = test system: DU-145 prostate
[38] = test system: HL-60(TB) leukemia
[39] = test system: MOLT-4 leukemia
[40] = test system: COLO 205 colon
[41] = test system: SK-MEL-28 melanoma
[42] = test system: U251 CNS
[43] = test system: SK-MEL-5 melanoma
[44] = test system: MDA-MB-435
[45] = test system: ACHN renal
[46] = test system: SF-539 CNS
[47] = test system: SF-295 CNS
[48] = test system: HCC-2998 colon
[49] = test system: CAKI-1 renal
[50] = test system: CCRF-CEM leukemia
[51] = test system: SN12C renal
[52] = test system: A549 NSCLC
[53] = test system: MDA-MB-231 breast
[54] = test system: 786-0 renal
[55] = test system: OVCAR-8 ovarian
[56] = test system: OVCAR-5 ovarian

For CCN1CCN(Cc2ccc(C(=O)Nc3nc4ccc(Oc5ccnc(C(=O)NC)c5)cc4s3)cc2C(F)(F)F)CC1, the GI50 [1] was 4050 nM, the TGI [1] was 20800 nM and the GI50 [2] was 1230 nM. The TGI [2] was 3220 nM, the GI50 [3] was 2030 nM and the TGI [3] was over 100000 nM. For the same compound, the GI50 [4] was 1010 nM, the TGI [4] was 7260 nM and the GI50 [5] was 1480 nM. The TGI [5] was 2950 nM, the GI50 [6] was 2650 nM and the TGI [6] was 6830 nM. It also gave a GI50 [7] of 7950 nM and a TGI [7] of 32200 nM.
CCCCCCCCNC(=O)c1ccc(Cn2c(CCCC)nc3c(N)nc4ccccc4c32)cc1 gave a GI50 [8] of 2550 nM, a TGI [8] of 11500 nM and a GI50 [9] of 2490 nM. For the same compound, the TGI [9] was 6520 nM, the GI50 [10] was 2570 nM and the TGI [10] was 11100 nM. The GI50 [11] was 1750 nM, the TGI [11] was 3950 nM and the GI50 [12] was 1420 nM. It also gave a TGI [12] of 2820 nM, a GI50 [13] of 1370 nM and a TGI [13] of 3310 nM. For the same compound, the GI50 [14] was 2490 nM, the TGI [14] was 7160 nM and the GI50 [15] was 2860 nM. The TGI [15] was 12500 nM, the GI50 [16] was 1860 nM and the TGI [16] was 3670 nM. The GI50 [17] was 459 nM, the TGI [17] was 3300 nM and the GI50 [1] was 1720 nM. The TGI [1] was 4200 nM, the GI50 [18] was 1890 nM and the TGI [18] was 4360 nM. For the same compound, the GI50 [19] was 1080 nM, the TGI [19] was 2470 nM and the GI50 [20] was 2800 nM. The TGI [20] was 10200 nM, the GI50 [21] was 1640 nM and the TGI [21] was 3420 nM. It also gave a GI50 [2] of 1940 nM, a TGI [2] of 3940 nM and a GI50 [22] of 2350 nM. It also gave a TGI [22] of 11300 nM, a GI50 [23] of 1470 nM and a TGI [23] of 3200 nM. It also gave a GI50 [24] of 1700 nM, a TGI [24] of 3870 nM and a GI50 [25] of 1800 nM. It also gave a TGI [25] of 3510 nM, a GI50 [26] of 1690 nM and a TGI [26] of 3290 nM. The GI50 [27] was 1650 nM, the TGI [27] was 3490 nM and the GI50 [28] was 1740 nM. The TGI [28] was 3480 nM, the GI50 [29] was 1910 nM and the TGI [29] was 4140 nM. The GI50 [30] was 1600 nM, the TGI [30] was 4490 nM and the GI50 [31] was 1590 nM. It also gave a TGI [31] of 3570 nM, a GI50 [3] of 14500 nM and a TGI [3] of 41400 nM. It also gave a GI50 [32] of 2010 nM, a TGI [32] of 4630 nM and a GI50 [33] of 1960 nM. For the same compound, the TGI [33] was 4330 nM, the GI50 [34] was 1580 nM and the TGI [34] was 5180 nM. The GI50 [35] was 2850 nM, the TGI [35] was 17200 nM and the GI50 [4] was 26.9 nM. It also gave a TGI [4] of 838 nM, a GI50 [36] of 1940 nM and a TGI [36] of 3830 nM. The GI50 [37] was 3500 nM, the TGI [37] was 12100 nM and the GI50 [38] was 1830 nM. The TGI [38] was 4610 nM, the GI50 [39] was 2440 nM and the TGI [39] was 8710 nM. The GI50 [40] was 2040 nM, the TGI [40] was 4330 nM and the GI50 [41] was 1630 nM. The TGI [41] was 3050 nM, the GI50 [42] was 1830 nM and the TGI [42] was 3980 nM. It also gave a GI50 [5] of 1000 nM, a TGI [5] of 2790 nM and a GI50 [6] of 2200 nM. For the same compound, the TGI [6] was 6220 nM, the GI50 [43] was 1570 nM and the TGI [43] was 2910 nM. It also gave a GI50 [44] of 1690 nM, a TGI [44] of 3110 nM and a GI50 [45] of 1720 nM. The TGI [45] was 3660 nM, the GI50 [46] was 1680 nM and the TGI [46] was 3190 nM. For the same compound, the GI50 [47] was 1590 nM, the TGI [47] was 3190 nM and the GI50 [48] was 2220 nM. It also gave a TGI [48] of 5390 nM, a GI50 [49] of 1650 nM and a TGI [49] of 6240 nM. For the same compound, the GI50 [50] was 1730 nM, the TGI [50] was 4960 nM and the GI50 [51] was 1920 nM. The TGI [51] was 4890 nM, the GI50 [52] was 3160 nM and the TGI [52] was 12300 nM. It also gave a GI50 [53] of 1540 nM, a TGI [53] of 3550 nM and a GI50 [54] of 1710 nM. It also gave a TGI [54] of 3340 nM, a GI50 [55] of 2040 nM and a TGI [55] of 5080 nM. The GI50 [56] was 3350 nM, the TGI [56] was 13800 nM and the GI50 [7] was 2640 nM. For the same compound, the TGI [7] was 7470 nM.
